Test results: patent EP0501641A1, “L-2-oxothiazolidine-4-carboxylate and glutathion esters for the treatment of hepatic diseases” (CLINTEC NUTRITION COMPANY, priority 1991, dated 1992)

Assay: Example 3: post liver transplant supplementation with glutathione methyl ester tablets, plasma glutathione monitored
Assay type: in vivo
Conditions: tablet t.i.d. containing 0.5 g, Normal Range 4.5
Description: A person with primary biliary cirrhosis underwent liver transplant. In addition to routine post-surgery immuno-suppressive and nutritional therapies the patient received a glutathione-containing tablet t.i.d. containing 0.5 g glutathione methyl ester. The goal of the therapy was to normalize plasma and tissue glutathione status.
Plasma glutathione concentration was monitored periodically; values for Week 1 and Week 12 are given below: […]

Q: Which results are given for `COC(=O)CNC(=O)[C@H](CS)NC(=O)CC[C@H](N)C(=O)O` [glutathione methyl ester]?
A: Plasma Glutathione (Week 1, person after liver transplant): 1.2 µM; Plasma Glutathione (Week 12): 3.9 µM
